Publication PMC12693419, “Design, Synthesis, Biological Evaluation, and In Silico Studies of Novel Multitarget Cinnamic Acid Hybrids” (Molecules, 2025)

Legend:
[1] = molecular target: T1, bovine serum albumin (Bos taurus, UniProt P02769); experiment: In vitro inhibition of albumin denaturation; conditions: heat denaturation, 60 °C 10 min
T1 construct: bovine serum albumin solution (fraction V); purchased Merck and Sigma-Aldrich; host or cells: bovine serum (fraction V)
Experimental: The ability of a compound to inhibit the thermal denaturation of albumin is considered an indicator of anti-inflammatory activity. Heat exposure simulates conditions of cellular stress or inflammation, during which protein and tissue damage occur. Certain substances can protect proteins from denaturation upon heating by stabilizing their structure and preventing aggregation and precipitation.
Inhibition of albumin denaturation was measured following the reported method. In a test tube, 1 mL of bovine serum albumin solution (fraction V, 1% w/v in phosphate buffer, pH 7.4) and 100 μL of the test compound solution were added sequentially. The mixture was incubated at 37 °C for 15 min, followed by heating at 60 °C for 10 min. After cooling to room temperature, the absorbance was measured at 660 nm. DMSO was used as the blank, and the results were compared to acetylsalicylic acid, which served as the reference compound (Table 6).

[2] = In vitro inhibition of linoleic acid lipid peroxidation (AAPH); conditions: 100 μM; anti-lipid peroxidation
From the text: In the present study, the aim was to evaluate the anti-lipid peroxidation activities of the synthesized compounds 5a–i, 6a–i, 9a–i, and 11 and compare their efficacy to that of Trolox, a well-known antioxidant. Using the water-soluble compound 2,2′-azobis(2-amidinopropane) hydrochloride (AAPH), peroxyl radicals are generated through spontaneous thermal decomposition in vitro. This experimental setup imitated the lipid peroxidation processes occurring in cells due to radical activity allowing the investigation of the effectiveness of the tested compounds under conditions resembling cellular oxidative stress.
An in vitro assay was performed following previously established protocols. The compound 2,2′-Azobis(2-methylpropionamidine) dihydrochloride (AAPH) was used as a controlled source of thermally generated alkylperoxy free radicals. The formation of conjugated diene hydroperoxides through the oxidation of sodium linoleate in an aqueous dispersion at 37 °C was measured by monitoring absorbance at 234 nm. The results were compared with the reference compound, Trolox (93%) (Table 6).

[3] = molecular target: T2, soybean lipoxygenase isoenzyme-1 (SLOX-1) (Glycine max, UniProt P08170); experiment: In vitro inhibition of soybean lipoxygenase; format: biochemical; conditions: for LOX Inh. IC50: pH 9.0; for IC50: pH 9.0, read-out: LOX Inh. IC50
T2 construct: purchased Merck and Sigma-Aldrich
T2 sequence (P08170 1-839): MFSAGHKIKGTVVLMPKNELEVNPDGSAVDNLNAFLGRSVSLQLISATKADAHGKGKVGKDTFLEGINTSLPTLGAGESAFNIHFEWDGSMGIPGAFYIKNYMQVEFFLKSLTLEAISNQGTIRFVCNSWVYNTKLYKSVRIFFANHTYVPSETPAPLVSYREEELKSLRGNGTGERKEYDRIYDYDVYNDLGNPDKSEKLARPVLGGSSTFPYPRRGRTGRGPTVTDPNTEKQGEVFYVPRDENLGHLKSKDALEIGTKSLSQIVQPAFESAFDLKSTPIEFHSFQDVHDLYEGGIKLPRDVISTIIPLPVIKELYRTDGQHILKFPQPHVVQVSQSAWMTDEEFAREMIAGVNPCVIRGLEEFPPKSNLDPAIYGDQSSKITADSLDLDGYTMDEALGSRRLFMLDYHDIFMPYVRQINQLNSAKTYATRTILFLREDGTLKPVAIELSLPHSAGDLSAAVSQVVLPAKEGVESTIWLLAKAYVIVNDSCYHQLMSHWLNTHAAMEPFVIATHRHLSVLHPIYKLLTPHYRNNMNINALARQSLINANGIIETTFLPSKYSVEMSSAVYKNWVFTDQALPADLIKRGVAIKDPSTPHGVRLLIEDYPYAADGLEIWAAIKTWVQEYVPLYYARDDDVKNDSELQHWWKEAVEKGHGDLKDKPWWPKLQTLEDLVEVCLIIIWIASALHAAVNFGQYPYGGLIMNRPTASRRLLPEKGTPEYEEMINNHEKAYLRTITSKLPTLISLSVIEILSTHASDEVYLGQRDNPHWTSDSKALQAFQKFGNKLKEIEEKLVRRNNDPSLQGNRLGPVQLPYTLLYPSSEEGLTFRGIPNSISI
Experimental: In vitro anti-LOX activities were evaluated using soybean lipoxygenase isoenzyme-1 (SLOX-1), a commonly used model for mammalian LOXs.
An in vitro study was conducted following a previously reported method. The tested compounds were dissolved in DMSO (100 µM) and incubated at room temperature with 0.1 mL of sodium linoleate as the substrate and 0.2 mL of soybean lipoxygenase solution in Tris-HCl buffer (pH 9.0).

[4] = In vitro determination of NO release with Griess reagent; conditions: 100 μM, L-cysteine, pH 7.4, 37 °C, 60 min
From the text: This assay evaluates the ability of nitrate esters to release nitric oxide (NO). First, sodium nitroprusside (SNP) reacts with the thiol compound, cysteine, which serves as a reducing agent (Scheme 5). The thiol donates electrons, facilitating the breakdown of the nitroprusside complex. Afterwards, the reaction leads to the formation of intermediate complexes, such as nitrosothiol species and the decomposition of these intermediates results in the release of nitric oxide (NO). According to the literature, measurements are conducted both in the presence and absence of the thiol agent, cysteine. No significant difference was observed between the two experimental conditions, and the results were reproducible. Sodium nitroprusside (SNP) was used as the reference compound [65].
The compounds (from a 10 mM stock solution in DMSO, final concentration 100 μM) are added (20 μL) to each test tube. Then, 2 mL of phosphate buffer solution (pH 7.4) is added. L-cysteine, used as the thiol agent, is added to the mixture at a final concentration of 0.5 mM. The solution is incubated at 37 °C for 60 min, after which 1 mL is removed and mixed with 250 μL of Griess reagent (4 g sulfanilamide, 0.2 g N-(1-naphthyl)-ethylenediamine dihydrochloride, and 10 mL of H3PO4 solution, final volume adjusted to 100 mL). The mixture is allowed to stand for 10 min at room temperature, and the absorbance of the produced compound is measured at 540 nm. Sodium nitroprusside (SNP) is used as the reference compound. The results are presented as the release of NO2^− (% NO2^− (mol/mol)) induced by the compounds in the presence of L-cysteine (Table 6).

[5] = molecular target: T3, ovine COX-2 (Ovis aries, UniProt P79208); experiment: In vitro inhibition of ovine cyclooxygenase-2
T3 sequence (P79208 17-603): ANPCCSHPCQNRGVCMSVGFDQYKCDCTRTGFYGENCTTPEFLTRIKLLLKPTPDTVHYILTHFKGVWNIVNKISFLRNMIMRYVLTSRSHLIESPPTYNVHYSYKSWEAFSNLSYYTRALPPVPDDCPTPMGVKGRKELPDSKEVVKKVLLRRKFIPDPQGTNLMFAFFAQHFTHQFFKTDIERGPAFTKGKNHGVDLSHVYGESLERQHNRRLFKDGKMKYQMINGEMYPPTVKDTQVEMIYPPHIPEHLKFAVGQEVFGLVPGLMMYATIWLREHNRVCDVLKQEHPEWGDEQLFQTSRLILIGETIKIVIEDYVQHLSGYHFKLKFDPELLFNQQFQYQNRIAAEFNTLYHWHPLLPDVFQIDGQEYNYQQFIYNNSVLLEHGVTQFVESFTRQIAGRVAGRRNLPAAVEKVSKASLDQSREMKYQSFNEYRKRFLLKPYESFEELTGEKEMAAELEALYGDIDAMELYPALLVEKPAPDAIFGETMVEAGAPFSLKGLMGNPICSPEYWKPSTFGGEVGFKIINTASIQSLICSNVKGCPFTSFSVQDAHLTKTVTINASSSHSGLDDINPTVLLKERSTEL
Experimental: In order to prevent this in the in vitro experiment used for testing COX inhibition activity of the new molecules, a co-substrate like N,N,N′,N′-tetramethyl-p-phenylenediamine (TMPD) is included, as it undergoes co-oxidation by PGG2. The oxidized TMPD has a maximum absorbance at 590 nm. […] To ensure maximum enzyme activity, heme is added to the reaction mixture during the in vitro assay for ovine COX-2 inhibition and COX-1 inhibition [63].
The in vitro COX-2 inhibitory activity was assessed using arachidonic acid (AA) as a substrate and N,N,N′,N′-tetramethyl-p-phenylenediamine (TMPD) as a co-substrate in a Tris-HCl buffer (pH 8.5), following the reported method [89]. To the test tube, 10 µL of the compound dissolved in DMSO was added to a mixture containing 730 µL of Tris-HCl buffer (pH 8.5), 50 µL of heme, 10 µL of COX-2 enzyme, and 100 µL of TMPD. The absorbance was measured at 590 nm. […] A blank determination was conducted as a negative control.

T1 sequence (P02769 25-607): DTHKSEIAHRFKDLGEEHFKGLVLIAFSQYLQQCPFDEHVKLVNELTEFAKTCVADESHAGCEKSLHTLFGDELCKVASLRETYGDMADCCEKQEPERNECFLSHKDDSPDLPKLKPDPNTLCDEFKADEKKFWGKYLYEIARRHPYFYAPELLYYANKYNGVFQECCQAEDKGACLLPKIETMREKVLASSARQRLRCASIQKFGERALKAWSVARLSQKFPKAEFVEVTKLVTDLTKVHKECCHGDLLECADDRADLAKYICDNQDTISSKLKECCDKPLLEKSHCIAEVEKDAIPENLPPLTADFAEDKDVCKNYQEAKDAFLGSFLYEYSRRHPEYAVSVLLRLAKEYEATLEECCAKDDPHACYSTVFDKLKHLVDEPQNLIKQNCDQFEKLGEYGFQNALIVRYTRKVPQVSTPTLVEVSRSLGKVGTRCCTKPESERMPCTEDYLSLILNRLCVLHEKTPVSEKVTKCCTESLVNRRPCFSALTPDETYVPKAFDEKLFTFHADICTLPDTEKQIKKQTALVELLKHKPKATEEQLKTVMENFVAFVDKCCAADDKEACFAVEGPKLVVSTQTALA

Albumin (inhibition of albumin denaturation) [1] | LOX Inh. IC50 [3] | IC50 [3] [µM] | IC50 [5] [µM] | COX-2 Inh. IC50 [5] | Structure (SMILES) | AAPH Inh. at 100 μΜ [2] | %NO2^− Release mol/mol at 100 μΜ [4]
no | – | 50 | 100 | – | C/C(=N\O)c1ccc(NC(=O)COC(=O)C=Cc2ccccc2)cc1 [Compound 6a, 2-((4-((E)-1-(Hydroxyimino)ethyl)phenyl)amino)-2-oxoethyl cinnamate] | 50.2% | no activity and no
no | – | 60 | – | no | C/C(=N\O)c1ccc(NC(=O)COC(=O)/C=C/c2cccc3ccccc23)cc1 [Compound 6b, 2-((4-((E)-1-(Hydroxyimino)ethyl)phenyl)amino)-2-oxoethyl (E)-3-(naphthalen-1-yl)acrylate] | 94% | 1.1%
10% | no | – | – | no | C/C(=N\O)c1ccc(NC(=O)COC(=O)/C=C/c2ccco2)cc1 [Compound 6d, 2-((4-((E)-1-(Hydroxyimino)ethyl)phenyl)amino)-2-oxoethyl (E)-3-(furan-2-yl)acrylate] | 54% | 0.2%
63% | no | – | – | no | C/C(=N\O)c1ccc(NC(=O)COC(=O)/C=C/c2cc3ccccc3s2)cc1 [Compound 6e, 2-((4-((E)-1-(Hydroxyimino)ethyl)phenyl)amino)-2-oxoethyl (E)-3-(benzo[b]thiophen-2-yl)acrylate] | no | 1.1%
no | – | 44 | – | – | C/C(=N\O)c1ccc(NC(=O)COC(=O)/C(=C/c2ccccc2)c2ccccc2)cc1 [Compound 6g, 2-((4-((E)-1-(Hydroxyimino)ethyl)phenyl)amino)-2-oxoethyl (E)-2,3-diphenylacrylate] | 89% | no activity and no
no | – | 62.5 | – | – | C/C(=N\O)c1ccc(NC(=O)COC(=O)/C(=C/c2cccc3ccccc23)c2ccccc2)cc1 [Compound 6h, 2-((4-((E)-1-(Hydroxyimino)ethyl)phenyl)amino)-2-oxoethyl (E)-3-(naphthalen-1-yl)-2-phenylacrylate] | 97.7% | no activity and no

More lines, now with the values behind:

Structure (SMILES) | Albumin (inhibition of albumin denaturation) [1] | LOX Inh. IC50 [3] | IC50 [3] [µM] | IC50 [5] [µM] | COX-2 Inh. IC50 [5] | AAPH Inh. at 100 μΜ [2] | %NO2^− Release mol/mol at 100 μΜ [4]
CC(=O)Oc1ccccc1C(=O)O [Acetylsalicylic acid, acetylsalicylic acid, reference compound] | 31% | – | – | – | – | – | –
O=C(O)/C=C/c1ccccc1 [Cinnamic acid] | – | – | – | – | – | 78% | –
CC(=O)c1ccc(NC(=O)COC(=O)C=Cc2ccccc2)cc1 [Compound 5a, 2-((4-Acetylphenyl)amino)-2-oxoethyl Cinnamate] | – | no | – | – | – | 31.9% | –
CC(=O)c1ccc(NC(=O)COC(=O)/C=C/c2cccc3ccccc23)cc1 [Compound 5b, 2-((4-Acetylphenyl)amino)-2-oxoethyl (E)-3-(naphthalen-1-yl)acrylate] | – | – | 57.5 | – | – | inactive and no | –
CC(=O)c1ccc(NC(=O)COC(=O)/C=C/c2cccs2)cc1 [Compound 5c, 2-((4-Acetylphenyl)amino)-2-oxoethyl (E)-3-(thiophen-2-yl)acrylate] | – | no | – | – | – | 29% | –
CC(=O)c1ccc(NC(=O)COC(=O)/C=C/c2ccco2)cc1 [Compound 5d, 2-((4-Acetylphenyl)amino)-2-oxoethyl (E)-3-(furan-2-yl)acrylate] | – | no | – | – | – | no | –
CC(=O)c1ccc(NC(=O)COC(=O)/C=C/c2cc3ccccc3s2)cc1 [Compound 5e, 2-((4-Acetylphenyl)amino)-2-oxoethyl (E)-3-(benzo[b]thiophen-2-yl)acrylate] | – | no | – | – | – | no | –
CC(=O)c1ccc(NC(=O)COC(=O)/C=C/c2cc3ccccc3o2)cc1 [Compound 5f, 2-((4-Acetylphenyl)amino)-2-oxoethyl (E)-3-(benzofuran-2-yl)acrylate] | – | – | 80 | – | – | 39% | –
CC(=O)c1ccc(NC(=O)COC(=O)/C(=C/c2ccccc2)c2ccccc2)cc1 [Compound 5g, 2-((4-Acetylphenyl)amino)-2-oxoethyl (E)-2,3-diphenylacrylate] | – | no | – | – | – | 94.7% | –
CC(=O)c1ccc(NC(=O)COC(=O)/C(=C/c2cccc3ccccc23)c2ccccc2)cc1 [Compound 5h, 2-((4-Acetylphenyl)amino)-2-oxoethyl (E)-3-(naphthalen-1-yl)-2-phenylacrylate] | – | – | 33 | – | – | 75.8% | –
CC(=O)c1ccc(NC(=O)COC(=O)/C(=C/c2cccs2)c2ccccc2)cc1 [Compound 5i, 2-((4-Acetylphenyl)amino)-2-oxoethyl (E)-2-phenyl-3-(thiophen-2-yl)acrylate] | – | no | – | – | – | 77% | –
Cc1c(C)c2c(c(C)c1O)CCC(C)(C(=O)O)O2 (stereo not shown) [Trolox, reference compound] | – | – | – | – | – | 93% | –
